# Data reported in PubChem BioAssay (NCI).
#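 Assay format: 96-well plates, 48-hour exposure. GI50 = concentration required for 50% inhibition of growth. At the TGI there is no net growth.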
# Assays:
# Experiment in all cases: growth of human tumour cells (NCI), 48 h
# [1] = system: LOX IMVI melanoma
# [2] = system: UO-31 renal
# [3] = system: SR leukemia
# [4] = system: EKVX NSCLC
# [5] = system: RPMI-8226 leukemia
# [6] = system: SK-MEL-28 melanoma
# [7] = system: IGROV1 ovarian
# [8] = system: HCT-15 colon
Compound,GI50 [1] [µM],TGI [1] [µM],GI50 [2] [µM],TGI [2] [µM],GI50 [3] [µM],TGI [3] [µM],GI50 [4] [µM],TGI [4] [µM],GI50 [5] [µM],TGI [5] [µM],GI50 [6] [µM],TGI [6] [µM],GI50 [7] [µM],TGI [7] [µM],GI50 [8] [µM],TGI [8] [µM]
NC(=O)C(Br)CBr (centres undefined),1.98,5.93,2.55,12.7,0.394,2.56,1.9,4.92,2.82,11.9,1.69,3.29,1.59,4.78,1.46,3.39
CCON=C1C(C)(C)C(C)(C)C(C)(C)C1(C)C,,> 100,,,,> 100,,> 100,,> 100,,> 100,,> 100,,> 100
C=C1C(=O)O[C@H]2[C@H]1CC/C(CNS(=O)(=O)c1ccc3ccccc3c1)=C\CC[C@@]1(C)O[C@@H]21,1.43,2.77,1.34,2.78,1.23,7.12,2.48,11.1,1.46,4.5,1.57,3.57,2.87,8.2,1.27,2.77
C=C1C(=O)O[C@H]2[C@H]1CC/C(CNC(=O)/C=C/c1cccc(OC)c1)=C\CC[C@@]1(C)O[C@@H]21,1.28,2.63,1.29,2.61,0.537,10.5,1.85,5.62,1.31,4.97,1.74,4.23,1.96,5.3,1.05,2.54
CN(C)/C=C/c1nnnn1-c1ccc(Cl)cc1,21.7,> 100,23.5,84.8,3.35,29.6,30.9,82.8,3.38,18.5,30.2,> 100,14,> 100,5.04,80
Nc1ccc(N=Nc2ccccc2)c(N)n1,29,> 100,13.7,43,18.1,> 100,4.08,33.4,36.2,> 100,,,23.7,77.5,35.8,> 100
CNC(=O)c1c(NC(=O)c2cccc(C(F)(F)F)c2)sc2c1CCC(=O)C2,0.339,1.66,0.197,0.77,0.191,> 100,0.593,> 21.7,0.198,0.781,0.837,> 100,0.339,2.26,0.249,1.51
Nc1ccc(-c2nc3ccccc3[nH]2)c(O)c1,40.8,> 100,43.8,> 100,26.2,> 100,15.1,> 100,17,52.3,53.9,> 100,> 100,> 100,> 100,> 100
C[C@@H]1COCCN1c1nc(-c2cnc(N)cc2C(F)F)nc(N2[C@H](C)COC[C@@H]2C)n1,0.206,11.3,0.0575,11,0.189,4.88,0.21,5.77,0.174,4.28,0.255,11.7,0.0845,1.77,0.236,12.4
CCc1ccc(-c2ccc(=O)n(-c3ccc(S(N)(=O)=O)cc3)n2)cc1,11.7,> 100,> 100,> 100,0.0659,0.497,5.65,> 100,0.759,7.33,6.73,> 100,3.32,> 77.6,0.746,> 100
O=CN1N=C(c2ccc(Nc3ccnc4cc(Cl)ccc34)cc2)CC1c1ccccc1 (centres undefined),1.61,3.33,3.81,> 100,1.77,4.9,4.94,> 100,2.55,12.3,8.35,77.7,9.36,> 100,2.54,14.4
O=C(Nc1ncc(Cc2ccccc2)s1)c1ccc2c(c1)OCCCO2,0.323,> 100,1.42,> 100,0.299,> 100,1.05,> 100,0.428,,0.838,> 100,0.88,> 100,0.376,> 100
COc1cc([C@@H]2c3cc4c(cc3C(Br)[C@H]3COC(=O)[C@H]23)OCO4)cc(OC)c1OC (some centres undefined),0.264,> 100,0.418,> 100,0.117,> 100,0.533,> 100,0.507,> 100,53.5,> 100,0.291,> 65.9,0.253,> 100
Cc1nc2cncc(C#Cc3cncc(C(=O)Nc4ccc(CN5CCN(C)CC5)c(C(F)(F)F)c4)c3)c2nc1C,0.208,0.807,0.256,1.06,0.46,3.81,0.8,5.05,0.487,4.49,0.422,2.71,0.206,1.29,0.286,5.92
CCN(CC)CCOc1ccc(Nc2ncc3cc(-c4c(Cl)cccc4Cl)c(=O)n(CCOC)c3n2)cc1,0.0318,0.153,0.012,0.179,0.459,2.15,0.796,7.38,0.921,3.15,1.71,8.97,0.0138,0.0983,0.128,6.1
OCc1cccc(-c2ccc3ncc(-c4nc(NC5CC5)ncc4F)n3c2)c1,0.118,1.21,0.3,1,0.0541,> 38.9,0.296,0.946,0.22,0.788,0.29,0.998,0.227,1.32,0.267,1.39
Cc1cc(=O)c2cc(N=Cc3ccc([N+](=O)[O-])o3)ccc2o1,,> 100,,> 100,,> 100,,> 100,,> 100,,> 100,,> 100,,> 100
O=C1c2ccccc2-c2nccc3cc(Cl)nc1c23,1.13,2.33,,,1.34,4.18,48.9,> 100,0.705,3.35,2.22,15.8,0.586,1.91,,
O=C1c2ccccc2-c2c1c1ccc([N+](=O)[O-])cc1c(=O)n2CCNCCCNCCn1c2c(c3ccc([N+](=O)[O-])cc3c1=O)C(=O)c1ccccc1-2,0.0791,2.55,0.541,6.84,0.005,18.8,4.87,28.2,0.00538,0.139,1.29,10.2,0.0249,4.38,0.197,16.1
COc1cc(C(=O)/C=C/c2c(-c3ccc(F)cc3)nc3sc(C)cn23)cc(OC)c1OC,2.5,> 100,2.95,> 100,0.802,> 100,2.29,> 100,2.32,> 100,7.07,> 100,8.71,> 100,3.75,> 100
ON(CCc1ccncc1)Cc1ccccc1,,> 100,,> 100,,> 100,,> 100,,> 100,,> 100,,> 100,,> 100
C=C(C)C(=O)OC1CC2(C)OC2CC(OC(C)=O)/C(C)=C/C2OC(=O)C(=C)C21 (centres undefined),,7.67,,12.5,,4.47,,18.2,,3.49,,1.94,,18.6,,1.86
CN(C)c1ccc(C(=O)c2ccc(N(C)C)c(N)c2)cc1N,7.75,> 100,4.02,> 67.7,0.406,> 16.4,8.87,> 100,1.33,> 100,12.8,> 100,1.86,> 42.5,2.35,> 100
O=C(Cn1c(=O)c(-c2ccccc2)nc2ccccc21)c1cccnc1,> 100,> 100,> 100,> 100,> 100,> 100,> 100,> 100,> 100,> 100,> 100,> 100,> 100,> 100,> 100,> 100
